Assay results taken from patent publication US10196373B2, “Substituted 2-hydroxy-4-(2-(phenylsulfonamido)acetamido)benzoic acid analogs as inhibitors of STAT protein” (University of Central Florida Research Foundation, Inc., priority 2010, dated 2019).
Like-named read-outs stand apart in the source and are kept apart here.

Key:
MDA-468 cells = assay: Cell viability, MTS assay; assay type: cell-based; conditions: Homo sapiens, MDA-468, 72 hours
Method: (§1) To further test activity of these molecules, a whole-cell study involving cancer lines with known abherrant STAT3 expression was conducted. These human cell lines, including prostate cancer (DU145), breast cancer (MDA468), and promyelocytic leukemia (HL-60) were treated with the peptidomimetics and incubated for 72 hours. Disruption of cell viability was measured by MTS assay and IC50 values for the potential inhibitors was determined. OriginPro 8 (Northampton, Mass.) was used to evaluate EC50 using the dose response curve defined as follows:
(§2) [formula] where y is the fraction of death, x is the log of drug concentration. A2 is the top asymptote, A1 is the bottom asymptote, logx0 is the center of the curve, and p is the hill slope.

HL60 cells = assay: Cell viability, MTS assay; assay type: cell-based; conditions: Homo sapiens, HL-60, HL60, 72 hours
Method: as §1, §2

DU-145 cells = assay: Cell viability, MTS assay; assay type: cell-based; conditions: Homo sapiens, DU-145, 72 hours
Method: as §1, §2

OCI-AMI.2 cells = assay: Cell viability, MTS assay; assay type: cell-based
STAT3 [1] = biological target: STAT3 (Homo sapiens (Human), UniProt P40763); assay: Fluorescence polarization assay, inhibition of binding to STAT3; conditions: inhibition of binding to STAT3 in a fluorescence polarization assay; read-out: Ki (FP)
Chain of STAT3 (Homo sapiens (Human), UniProt P40763) (P40763 whole entry): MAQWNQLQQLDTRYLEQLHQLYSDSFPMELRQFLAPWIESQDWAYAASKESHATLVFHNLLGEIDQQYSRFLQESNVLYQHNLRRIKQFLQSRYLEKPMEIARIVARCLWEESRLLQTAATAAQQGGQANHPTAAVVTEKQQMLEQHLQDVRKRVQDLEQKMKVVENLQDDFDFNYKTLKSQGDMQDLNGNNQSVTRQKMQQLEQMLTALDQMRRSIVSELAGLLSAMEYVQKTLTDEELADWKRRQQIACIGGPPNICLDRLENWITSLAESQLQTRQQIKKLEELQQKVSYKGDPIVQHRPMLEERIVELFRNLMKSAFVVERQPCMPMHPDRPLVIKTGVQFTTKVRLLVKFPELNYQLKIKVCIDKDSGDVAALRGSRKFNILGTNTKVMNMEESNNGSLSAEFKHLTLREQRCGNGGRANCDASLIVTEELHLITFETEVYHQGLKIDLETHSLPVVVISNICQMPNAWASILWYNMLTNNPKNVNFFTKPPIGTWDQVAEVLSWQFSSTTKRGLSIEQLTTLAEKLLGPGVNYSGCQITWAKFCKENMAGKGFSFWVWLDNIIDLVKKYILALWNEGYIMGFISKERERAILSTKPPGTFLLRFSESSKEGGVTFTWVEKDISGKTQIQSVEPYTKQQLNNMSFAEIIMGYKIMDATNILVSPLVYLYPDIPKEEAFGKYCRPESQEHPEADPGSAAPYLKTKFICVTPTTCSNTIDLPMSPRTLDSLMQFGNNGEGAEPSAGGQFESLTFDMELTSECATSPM
Method: The fluorescent polarization experiments were performed on an Infinite M1000 (Tecan, Crailsheim, Germany). All assays were performed in the same buffer conditions of 50 mM NaCl, 10 mM Hepes, pH 7.5, 1 mM EDTA, and 2 mM dithiothreitol. Fluorescent-labelled peptides were kept at a final concentration of 10nM in buffered solution. […] of labelled peptides were added to […] of a 300 nM STAT3 protein solution (provided by SignalChem in 50 mM Tris-HCl, pH 7.5, 150 mM NaCl, 0.25 mM DTT, 0.1 mM PMSF, 25% glycerol and stored at −80° C.). Inhibitory molecules were dissolved in pure DMSO and diluted using buffer solution to produce four final concentrations ([…]). 7.5 μL of the inhibitory molecule solution was mixed with the STAT3 protein and labelled peptide solution in black 384-flat well microplates (Coming), and incubated for 15-30 minutes. The M1000 performed a shaking cycle and then read the plates. IC50′s were derived from the output using the curve-fitting software OriginPro 8 (Northampton, MA). The FP data was modelled by the following equation:
[formula] where X was the concentration of inhibitor and ρwas the corresponding fluorescence at that concentration. The free parameter was half the maximal inhibitory concentration (IC50) and the limiting values was the maximal measured fluorescence polarization (ρ1) and the minimal fluorescence polarization (ρ2). Origin curve fitting software utilizes the Levenberg-Marquardt algorithm and reduced chi-square criterion for convergence. The inhibitor dissociation constant, Ki, was calculated from the derived IC50 values, as per the following formula: […]
Further details of the fluorescence polarization assay are as described previously (Zhang X, et al. (2010) A novel small-molecule disrupts Stat3 SH2domainphosphotyrosine interactions and Stat3-dependent tumor processes. Biochem Pharmacol 79: 1398-1409).

STAT3 [2] = biological target: STAT3 (Mus musculus, UniProt P42227); assay: Stat3 DNA-binding activity, electrophoretic mobility shift assay (EMSA) with nuclear extracts; assay type: biochemical
Chain of STAT3 (Mus musculus, UniProt P42227) (P42227 2-770 limits assumed): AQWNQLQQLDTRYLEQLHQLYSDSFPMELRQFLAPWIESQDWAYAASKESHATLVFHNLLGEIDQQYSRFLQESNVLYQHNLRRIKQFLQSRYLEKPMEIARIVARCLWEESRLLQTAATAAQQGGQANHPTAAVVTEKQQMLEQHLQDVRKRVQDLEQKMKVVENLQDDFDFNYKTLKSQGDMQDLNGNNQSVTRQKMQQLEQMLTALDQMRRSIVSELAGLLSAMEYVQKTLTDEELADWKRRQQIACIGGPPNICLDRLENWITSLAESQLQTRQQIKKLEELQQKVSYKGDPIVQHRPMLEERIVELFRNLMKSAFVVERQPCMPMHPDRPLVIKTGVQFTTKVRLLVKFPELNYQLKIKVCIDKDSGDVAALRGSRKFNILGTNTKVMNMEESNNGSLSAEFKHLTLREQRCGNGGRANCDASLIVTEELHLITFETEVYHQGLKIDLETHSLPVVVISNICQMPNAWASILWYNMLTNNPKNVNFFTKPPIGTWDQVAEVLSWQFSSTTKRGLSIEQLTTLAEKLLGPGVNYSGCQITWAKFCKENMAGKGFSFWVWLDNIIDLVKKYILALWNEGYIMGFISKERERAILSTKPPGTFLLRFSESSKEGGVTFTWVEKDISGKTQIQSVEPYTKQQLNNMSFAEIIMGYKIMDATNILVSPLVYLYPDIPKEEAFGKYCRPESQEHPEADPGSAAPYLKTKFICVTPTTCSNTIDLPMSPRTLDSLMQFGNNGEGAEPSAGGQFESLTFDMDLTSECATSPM
Method: Nuclear extract preparations and electrophoretic mobility shift assay (EMSA) were carried out as previously described (Yang J, et al. (2005) Cancer Res. 65:939-947). […] For direct effect of a test compound on Stat3 DNA-binding activity, nuclear extracts were pre-incubated with the agent for 30 min at room temperature prior to incubation with the radiolabeled probe for 30 min at 30° C. before subjecting to EMSA analysis. […] Cytosolic extract preparation from mammalian cells and luciferase assay previously described (Zhang X, et al. (2010) Biochem Pharmacol 79:1398-1409; Turkson J, et al. (1999) Mol. Cell. Biol. 19:7519-7528; Turkson J, et al. (1998) Mol. Cell. Biol. 18:2545-2552).)

K562 cells = assay: Cell viability in cell lines with constitutive activation of STAT5 (Almar Blue); assay type: cell-based
Method: (§3) To determine whether STAT5 inhbitors could be cytotoxic in cell lines that have constitutive activation of STAT5, the cell lines K562 and MV-4-11 were cultured at concentration 1×10^5, to insure that the cells are at the exponential stage of growth, and treated with the different synthesized molecules at concentrations of 10, 20 and 40 μM. Viability were determined using Almar Blue (Invitrogen) in 96-well plate over 3 consecutive days. Fluorescence was quantified using Spectra Max M5 (Molecular Devices).

MV-4-11 cells = assay: as above; assay type: cell-based
Method: as §3

[3] = inhibition of STAT3 activity in an EMSA

| SMILES | IC50 (MDA-468 cells) [µM] | IC50 (HL60 cells) [µM] | IC50 (DU-145 cells) [µM] | IC50 (OCI-AMI.2 cells) [µM] | Ki (STAT3 [1]) [µM] | IC50 (STAT3 [2]; [3]) [µM] | IC50 (STAT3 [2]) [µM] | IC50 (K562 cells) [µM] | IC50 (MV-4-11 cells) [µM] | IC50 (K562 cells; Homo sapiens) [µM] | IC50 (MV-4-11 cells; Homo sapiens, MV4-11) [µM] |
| --- | --- | --- | --- | --- | --- | --- | --- | --- | --- | --- | --- |
| Cc1ccc(S(=O)(=O)N(C)CC(=O)N(Cc2ccc(-c3ccc(-c4ccc(C#N)cc4)cc3)cc2)c2ccc(C(=O)O)c(O)c2)cc1 [Compound 27NG, 4-(N-((4′-cyanoterphenyl-4-yl)methyl)-2-(N,4-dimethylphenylsulfonamido)acetamido)-2-hydroxybenzoic acid] | 32.5 ± 15.5 | 37.4 ± 14 | 94.4 ± 6.8 | 58.4 ± 13.8 | – | – | – | – | – | – | – |
| CN(CC(=O)N(Cc1ccc(C2CCCCC2)cc1)c1ccc(C(=O)O)c(O)c1)S(=O)(=O)c1cccc2cccnc12 [Compound 45F, 4-(N-(4-cyclohexylbenzyl)-2-(N-methylquinoline-8-sulfonamido)acetamido)-2-hydroxy-benzoic acid] | > 100 | > 100 | > 100 | > 100 | 41 ± 0.4 | 24.6 ± 3.4 | – | – | – | – | – |
| Cc1ccc(S(=O)(=O)N(C)CC(=O)N(Cc2ccc(-c3ccc(-c4ccc(C(N)=O)cc4)cc3)cc2)c2ccc(C(=O)O)c(O)c2)cc1 [Compound 27NH, 4-(N-((4″-carbamoyl-[1,1′:4′,1″-terphenyl]-4-yl)methyl)-2-(N,4-dimethylphenylsulfonamido)acetamido)-2-hydroxybenzoic acid] | – | – | – | – | 16.7 ± 1.7 | – | 43 ± 1.3 | – | – | – | – |
| Cc1ccc(S(=O)(=O)N(CC(=O)N(Cc2ccc(C3CCCCC3)cc2)c2ccc(C(=O)O)c(O)c2)C(=O)OC(C)(C)C)cc1 [SF-1-087] | – | – | – | – | – | – | – | > 80 | 51 ± 7 | – | – |
| Cc1ccc(S(=O)(=O)N(C)CC(=O)N(Cc2ccc(C3CCN(S(=O)(=O)c4ccc(C#N)cc4)CC3)cc2)c2ccc(C(=O)O)c(O)c2)cc1 [Compound 27KG, 4-(N-(4-(1-((4-cyanophenyl)sulfonyl)piperidin-4-yl)benzyl)-2-(N,4-dimethylphenyl-sulfonamido)acetamido)-2-hydroxybenzoic acid] | 94.9 ± 8.8 | 83.1 ± 13.5 | > 100 | > 100 | 21.5 ± 2.2 | 50 ± 15 | – | – | – | – | – |
| Cc1cc(C)c(S(=O)(=O)N(C)CC(=O)N(Cc2ccc(C3CCCCC3)cc2)c2ccc(C(=O)O)c(O)c2)c(C)c1 [Compound 45b, 4-(N-(4-cyclohexylbenzyl)-2-(N,2,4,6-tetramethylphenylsulfonamido)acetamido)-2-hydroxy-benzoic acid] | 22.6 ± 8.3 | 40.4 ± 20.2 | 44.5 ± 16 | 65.4 ± 13 | – | – | – | – | – | 80 ± 18 | > 80 |
| Cc1ccc(S(=O)(=O)N(C)CC(=O)N(Cc2ccc(-c3ccc(C(=O)O)cc3)cc2)c2ccc(C(=O)O)c(O)c2)cc1 [Compound 27LE, 4′-((N-(4-carboxy-3-hydroxyphenyl)-2-(N,4-dimethylphenylsulfonamido)acetamido)methyl)-[1,1′-biphenyl]-4-carboxylic acid] | 52.9 ± 22.5 | 68 ± 32.8 | > 100 | 76.7 ± 27.1 | – | – | – | – | – | – | – |
| CN(CC(=O)N(Cc1ccc(C2CCCCC2)cc1)c1ccc(C(=O)O)c(O)c1)S(=O)(=O)c1ccc(F)cc1 [Compound 45L, 4-(N-(4-cyclohexylbenzyl)-2-(4-fluoro-N-methylphenylsulfonamido)acetamido)-2-hydroxy benzoic acid] | 41.3 ± 5.7 | 75.1 ± 25.1 | 72.7 ± 18.4 | 84.4 ± 22.1 | – | – | – | – | – | – | – |
| Cc1cccc(S(=O)(=O)N(C)CC(=O)N(Cc2ccc(C3CCCCC3)cc2)c2ccc(C(=O)O)c(O)c2)c1 [Compound 45A, 4-(N-(4-cyclohexylbenzyl)-2-(N,3-dimethylphenylsulfonamido)acetamido)-2-hydroxy-benzoic acid] | 59.6 ± 4 | 78.5 ± 1.8 | 90.4 ± 3.1 | 85.9 ± 0.4 | – | – | – | – | – | – | – |
| CN(CC(=O)N(Cc1ccc(C2CCCCC2)cc1)c1ccc(C(=O)O)c(O)c1)S(=O)(=O)c1ccc([N+](=O)[O-])cc1 [Compound 45N, 4-(N-(4-cyclohexylbenzyl)-2-(N-methyl-4-nitrophenylsulfonamido)acetamido)-2-hydroxy benzoic acid] | 51.7 ± 14.2 | 99.3 ± 62.1 | > 100 | 96.3 ± 18.5 | – | – | – | – | – | – | – |
| CN(CC(=O)N(Cc1ccc(C2CCCCC2)cc1)c1ccc(C(=O)O)c(O)c1)S(=O)(=O)c1cccc2ccccc12 [Compound 45E, 4-(N-(4-cyclohexylbenzyl)-2-(N-methylnaphthalene-1-sulfonamido)acetamido)-2-hydroxy-benzoic acid] | 46.5 ± 12.4 | 76.9 ± 50.5 | 74.5 ± 30.2 | 33.3 ± 19.8 | 26.5 ± 0.4 | 28.8 ± 2 | – | – | – | – | – |
| COC(=O)c1ccc(-c2ccc(-c3ccc(CN(C(=O)CN(C)S(=O)(=O)c4ccc(C)cc4)c4ccc(C(=O)O)c(O)c4)cc3)cc2)cc1 [Compound 27NE] | 96.3 ± 31.7 | > 100 | > 100 | > 100 | – | – | – | – | – | – | – |
| CN(C)c1cccc2c(S(=O)(=O)N(C)CC(=O)N(Cc3ccc(C4CCCCC4)cc3)c3ccc(C(=O)O)c(O)c3)cccc12 [Compound 45G, 4-(N-(4-cyclohexylbenzyl)-2-(5-(dimethylamino)-N-methylnaphthalene-1-sulfonamido)acetamido)-2-hydroxybenzoic acid] | 45.5 ± 7.9 | 74.9 ± 20.2 | > 100 | > 100 | – | – | – | – | – | – | – |
| CN(CC(=O)N(Cc1ccc(C2CCCCC2)cc1)c1ccc(C(=O)O)c(O)c1)S(=O)(=O)c1ccc2ccccc2c1 [Compound 45D, 4-(N-(4-cyclohexylbenzyl)-2-(N-methylnaphthalene-2-sulfonamido)acetamido)-2-hydroxy-benzoic acid] | 45.4 ± 23.2 | 99.8 ± 15.6 | 81 ± 39.3 | 93.5 ± 32.2 | – | 79.2 ± 11.2 | – | – | – | – | – |
| CN(CC(=O)N(Cc1ccc(C2CCCCC2)cc1)c1ccc(C(=O)O)c(O)c1)S(=O)(=O)c1ccc(C#N)cc1 [Compound 45I, 4-(2-(4-cyano-N-methylphenylsulfonamido)-N-(4-cyclohexylbenzyl)acetamido)-2-hydroxy-benzoic acid] | 27 ± 2.7 | 59.1 ± 11.5 | 69.6 ± 3.4 | 53.5 ± 22.8 | – | – | – | – | – | – | – |
| CN(CC(=O)N(Cc1ccc(C2CCCCC2)cc1)c1ccc(C(=O)O)c(O)c1)S(=O)(=O)c1ccc(Br)cc1 [Compound 45J] | 19.5 ± 2 | 47.4 ± 8.2 | 45.9 ± 8.6 | 44.9 ± 7.1 | – | – | – | – | – | – | – |
| Cc1ccc(S(=O)(=O)N(CC(=O)N(Cc2ccccc2)c2ccc(C(=O)O)c(O)c2)C(=O)OC(C)(C)C)cc1 [SF-1-088] | – | – | – | – | – | – | – | 77 ± 5 | > 80 | – | – |
| COc1ccc(S(=O)(=O)N(C)CC(=O)N(Cc2ccc(C3CCCCC3)cc2)c2ccc(C(=O)O)c(O)c2)cc1 [Compound 45M, 4-(N-(4-cyclohexylbenzyl)-2-(4-methoxy-N-methylphenylsulfonamido)acetamido)-2-hydroxybenzoic acid] | 71.4 ± 13.6 | > 100 | 92.7 ± 27.9 | > 100 | – | – | – | – | – | – | – |
| CN(CC(=O)N(Cc1ccc(C2CCCCC2)cc1)c1ccc(C(=O)O)c(O)c1)S(=O)(=O)c1ccc(Cl)cc1 [Compound 45K, 4-(2-(4-chloro-N-methylphenylsulfonamido)-(4-cyclohexylbenzyl)acetamido)-2-hydroxy-benzoic acid] | 29.7 ± 16.7 | 56.3 ± 9.3 | 67.5 ± 24.2 | 76.4 ± 10.8 | – | – | – | – | – | – | – |
